According to patent US8735412B2, “Sulfoximine-substituted anilinopyrimidine derivatives as CDK inhibitors, the production thereof, and use as medicine” (Bayer Intellectual Property GmbH, priority 2008, dated 2014):
Where two headings read alike, the source gives them in different places.

Key:
CDK2/CycE = biological target: T1, CDK2/CycE (Homo sapiens, UniProt P24941); assay: CDK2/CycE kinase assay (Assay 2); type: biochemical; settings: 0.5 μM ATP, histon IIIS substrate; read-out: CDK2/CycE (Assay 2) Concentration for 50% inhibition of enzyme activity, IC50
T1 construct: purchased ProQinase GmbH, Freiburg; host or cells: baculovirus-infected insect cells (Sf9)
Procedure: 10.2 Assay 2: CDK2/CycE Kinase Assay
Recombinant CDK2 and CycE-GST fusion proteins, purified from baculovirus-infected insect cells (Sf9), were purchased from ProQinase GmbH, Freiburg. Histon IIIS, used as kinase substrate, was purchased from the company Sigma. CDK2/CycE (50 ng/measuring point) was incubated for 10 min at 22° C. in the presence of various concentrations of test substances (0 μM, and within the range 0.01-100 μM) in assay buffer [50 mM Tris/HCl pH8.0, 10 mM MgCl2, 0.1 mM Na ortho-vanadate, 1.0 mM dithiothreitol, 0.5 μM adenosine triphosphate (ATP), 10 μg/measuring point histon IIIS, 0.2 μCi/measuring point ^33P-gamma ATP, 0.05% NP40, 1.25% dimethylsulfoxide]. The reaction was stopped by adding EDTA solution (250 mM, pH8.0, 15 μl/measuring point).
From each reaction mixture, 15 μl was applied to P30 filter strips (from Wallac), and unincorporated ^33P-ATP was removed by washing the filter strips three times, for 10 min each time, in 0.5% phosphoric acid. After drying the filter strips for 1 hour at 70° C., the filter strips were covered with scintillator strips (MeltiLex™ A, from Wallac) and stoved for 1 hour at 90° C. The amount of incorporated ^33P (substrate phosphorylation) was determined by scintillation measurement in a gamma-radiation measuring instrument (Wallac). The measured data were standardized to 0% inhibition (enzyme reaction without inhibitor) and 100% inhibition (all assay components except enzyme). The IC50 values were determined by means of a 4-parameter fit using the company's own software.

[1] = tested on: HeLa-MaTu cervical carcinoma cells; assay: Proliferation assay (Assay 4), crystal violet staining; type: cell-based; settings: Homo sapiens, 96 h, 4 days incubation; read-out: HeLa-MaTu (Assay 4) Concentration for 50% inhibition of cellular proliferation, IC50
Procedure: 10.4 Assay 4: Proliferation Assay
Cultivated human HeLa-MaTu cervical carcinoma cells (obtained from EPO-GmbH, Berlin) were plated at a density of 3000 cells/measuring point in a 96-well multititer is plate in 200 μl of growth medium (DMEM/HAMS F12, 2 mM L-glutamine, 10% fetal calf serum). After 24 hours the cells of one plate (zero-point plate) were stained with crystal violet (see below), whereas the medium of the other plates was replaced with fresh culture medium (200 μl), to which the test substances had been added at various concentrations (0 μM, and in the range 0.01-30 μM; the final concentration of the solvent dimethylsulfoxide was 0.5%). The cells were incubated for 4 days in the presence of the test substances. Cellular proliferation was determined by staining the cells with crystal violet: the cells were fixed by adding 20 μl/measuring point of an 11% glutaraldehyde solution for 15 min at room temperature. After washing the fixed cells with water three times, the plates were dried at room temperature. The cells were stained by adding 100 μl/measuring point of a 0.1% crystal violet solution (pH adjusted to pH3 by adding acetic acid). After washing the stained cells with water three times, the plates were dried at room temperature. The dye was dissolved by adding 100 μl/measuring point of a 10% acetic acid solution. The extinction was determined photometrically at a wavelength of 595 nm. The percentage change in cell growth was calculated by standardization of the measured values to the extinction values of the zero-point plate (=0%) and the extinction of the untreated (0 μM) cells (=100%). The measured data were standardized to 0% inhibition (cell proliferation without inhibitor) and 100% inhibition (zero-point plate). The IC50 values were determined by means of a 4-parameter fit using the company's own software.

[2] = tested on: HeLa-MaTu human cervical carcinoma xenograft; assay: HeLa-MaTu cervical tumor xenograft model on NMRI nude mice; type: in vivo; settings: oral; for tolerability of the cyclic treatment regimen: 10 mg/kg; for response vs control in vivo at 10 mg/kg: Mus musculus, read-out: treatment/control ratio T/C (tumor weight)
Procedure: HeLa-MaTu (EPO-GmbH, Berlin) human cervical carcinoma cells, which were grown in cell culture, were implanted subcutaneously in the flank of female NMRI nude mice. […] The study was terminated as soon as the tumors in one of the groups reached a size of approx. 150 mm^2.
(§1) The growth-inhibiting effect of the compounds was tested in the HeLa-MaTu cervical tumor model as xenograft on NMRI nude mice. […] Treatment of the established tumors was begun on day 4 after inoculation of the tumors.
as §1, §1
(§2) The study was designed for determining the initial response of a human cervical carcinoma xenograft model to treatments with the 5-Br comparative substance V12. The growth-inhibiting effect of the compounds was tested in the HeLa-MaTu cervical tumor model as xenograft on NMRI nude mice. V12 was dissolved completely in the solubilizer 40% polyethylene glycol 400 (PEG 400)/60% water to a final concentration of 0.7 mg/ml (group 2), 0.85 mg/ml (group 3), or 1.0 mg/ml (group 4). Treatment of the established tumors was begun on day 4 after inoculation of the tumors.
HeLa-MaTu (EPO-GmbH, Berlin) human cervical carcinoma cells, which were grown in cell culture, were implanted subcutaneously in the flank of female NMRI nude mice. […] The study was terminated as soon as the tumors in one of the groups reached a size of approx. 160 mm^2.
(§3) The growth-inhibiting effect of the compounds was tested in the HeLa-MaTu cervical tumor model as xenograft on NMRI nude mice. […] Treatment of the established tumors was begun on day 5 after inoculation of the tumors.
as §3, §3
The following test groups were used: • Group 1: Control, treatment with solubilizer (40% PEG 400/60% water) • Group 2: Compound according to WO 2005/037800 prepared according to preparation V14 disclosed above • (6 mg/kg, oral, 2x daily on day 5, 6, 12, 13, 19, 20) • Group 3: Compound according to WO 2005/037800 prepared according to preparation V14 disclosed above • (8 mg/kg, oral, 2× daily on day 5, 6, 12, 13, 19, 20) • Group 4: Compound according to WO 2005/037800 prepared according to preparation V14 disclosed above • (10 mg/kg, oral, 2× daily on day 5, 6, 12, 13, 19, 20)
as §2, with “substance V14.” for “substance V12.”, “mice. V14” for “mice. V12”, “of 0.6” for “of 0.7”, “2), 0.8” for “2), 0.85”, “day 5” for “day 4”

C[C@@H](O)[C@@H](C)Oc1nc(Nc2ccc(S(=N)(=O)C3CC3)cc2)ncc1Br (single isomer, unassigned) [Example V14]
IC50 (CDK2/CycE): 7 nM
IC50 [1]: 10 nM
reduction of tumor weight at the end of the study to % of the control group ([2]; 10 mg/kg (group 4), 2x daily on day 5, 6, 12, 13, 19, 20, day 20): 44%
tolerability of the cyclic treatment regimen ([2]; 2x daily on day 5, 6, 12, 13, 19, 20): well-tolerated
effect on tumor growth (in words) ([2]; 6, 8, 10 mg/kg, 2x daily on day 5, 6, 12, 13, 19, 20): dose-dependent inhibition of tumor growth
response vs control in vivo at 10 mg/kg ([2]; 480 h, 10 mg/kg (group 4), 2x daily on day 5, 6, 12, 13, 19, 20, day 20): 44%

CCS(=N)(=O)c1ccc(Nc2ncc(Br)c(N[C@H](C)[C@@H](C)O)n2)cc1 (some centres unmarked) [Example V12]
IC50 (CDK2/CycE): 3 nM
IC50 [1]: 13 nM
tolerability of the cyclic treatment regimen ([2]; 2x daily on day 4, 5, 11, 12, 17, 18, 23, 24): well-tolerated
effect on tumor growth (in words) ([2]; 7, 8.5, 10 mg/kg, 2x daily on day 4, 5, 11, 12, 17, 18, 23, 24): dose-dependent weak inhibition of tumor growth
response vs control in vivo at 10 mg/kg ([2]; 672 h, 10 mg/kg (group 4), 2x daily on day 4, 5, 11, 12, 17, 18, 23, 24, day 28): 51%
